Laboratory results: EP3046573B1, “AMYLIN ANALOGUES” (Zealand Pharma A/S, priority 2013, dated 2015)
Read-outs that look alike come from different tables or passages of the source. Numbered stars: 1 amine (or outer) side, 2 acyl side, 3 side chain; on linkers, the order of the positions; unused ones are H or OH. Bridge positions count the residues as written; N and C are the ends. Square brackets hold non-standard residues; d marks the D form. Peptide text beside a SMILES is read from it. * marks the point of attachment. C20 diacid = O=C(O)CCCCCCCCCCCCCCCCCCC(=O)*; γGlu = O=C(O)[C@H](CCC(=O)[*:2])N[*:1]; NMeI = CC[C@H](C)[C@H](NC)C(=O)O; Aze = O=C(O)[C@@H]1CCN1; Sar = CNCC(=O)O

How the values were obtained:
[1] = molecular target: T1, human calcitonin receptor (hCTR2) (Homo sapiens, UniProt P30988); assay: hCTR2 assay: induction of cAMP (AlphaScreen cAMP Assay kit) in COS7 cells expressing hCTR2; assay type: cell-based
T1 construct: expressed in transfected cells
T1 sequence (P30988 25-474): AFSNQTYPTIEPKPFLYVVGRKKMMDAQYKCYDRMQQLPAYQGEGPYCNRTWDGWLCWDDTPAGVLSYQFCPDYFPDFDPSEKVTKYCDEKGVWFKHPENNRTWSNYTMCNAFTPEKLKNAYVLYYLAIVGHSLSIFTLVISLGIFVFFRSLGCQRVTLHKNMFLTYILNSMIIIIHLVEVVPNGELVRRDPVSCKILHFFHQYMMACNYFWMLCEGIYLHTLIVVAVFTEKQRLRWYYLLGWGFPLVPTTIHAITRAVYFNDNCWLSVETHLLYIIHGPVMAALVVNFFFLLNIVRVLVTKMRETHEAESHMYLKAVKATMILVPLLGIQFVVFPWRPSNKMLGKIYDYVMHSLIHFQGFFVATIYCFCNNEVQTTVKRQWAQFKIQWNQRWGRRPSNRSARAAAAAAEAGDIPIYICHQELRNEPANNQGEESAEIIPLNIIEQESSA
In short: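 COS7 stable hCTR2 clone (RAMP-free); peptide dose-response 15 min 37° C in Tyrode pH 7.4 + 100 µM IBMX + 0.1% casein; lysis 10 min RT; AlphaScreen cAMP; 4PL fit.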

[2] = Solubility assessment (turbidity absorbance at 325 nm); assay type: physicochemical; conditions: stock 2 mg/ml diluted 1:1, ambient temperature (typically 25°C), n=1; for Solubility, Acetate buffer pH 4: 100 mM acetate buffer pH 4.0; for Solubility, Acetate buffer pH 5: 100 mM acetate buffer pH 5.0; for Solubility, Histidine buffer pH 6: 100 mM histidine buffer pH 6.0; for Solubility, Histidine buffer pH 7: 100 mM histidine buffer pH 7.0; for Solubility, Phosphate buffer pH 6: 100 mM phosphate buffer pH 6.0; for Solubility, Phosphate buffer pH 7: 100 mM phosphate buffer pH 7.0; for Solubility, Phosphate buffer pH 7.5: 100 mM phosphate buffer pH7.5
In short: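 Peptide stock (2 mg/ml, water pH 2.5) diluted 1:1 into 100 mM acetate (pH 4.0, 5.0), histidine (pH 6.0, 7.0) or phosphate (pH 6.0–7.5) buffer; absorbance at 325 nm read at about 25°C, n=1. A325 ≤ 0.02 taken as solubility ≥ 1 mg/ml.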

[3] = molecular target: T2, human amylin receptor 3 (hAMYR3) consisting of hCTR2 co-expressed with human Receptor Activity Modifying Protein 3 (hRAMP3) (Homo sapiens, UniProt O60896+P30988); assay: hAMYR3 assay: induction of cAMP (AlphaScreen cAMP Assay kit) in COS7 cells expressing hAMYR3; assay type: cell-based
T2 construct: expressed in transfected cells
T2 sequence (P30988 25-474): T1 sequence (P30988 25-474)
T2 sequence (O60896 24-148 partner): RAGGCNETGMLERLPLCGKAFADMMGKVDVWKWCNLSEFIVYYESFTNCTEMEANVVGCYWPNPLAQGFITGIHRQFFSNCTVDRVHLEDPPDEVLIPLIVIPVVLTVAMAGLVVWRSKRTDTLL
In short: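 Stable COS7 clone co-expressing hCTR2 and hRAMP3, stimulated 15 min at 37° C with increasing peptide in Tyrode buffer pH 7.4 with 100 µM IBMX and 0.1% casein. cAMP measured by AlphaScreen after lysis; EC50 and % efficacy versus pramlintide from 4PL fit.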

[4] = cAMP induction in COS7 cells expressing hCTR2, average of a minimum of 3 determinations, read-out: hCTR2 EC50
[5] = cAMP induction in COS7 cells expressing hAMYR3, average of a minimum of 3 determinations, read-out: hAMY R3 EC50

Compound | EC50 [1, 4] [nM] | Solubility, Acetate buffer pH 4 [2] | Solubility, Acetate buffer pH 5 [2] | Solubility, Histidine buffer pH 6 [2] | Solubility, Histidine buffer pH 7 [2] | Solubility, Phosphate buffer pH 6 [2] | Solubility, Phosphate buffer pH 7 [2] | Solubility, Phosphate buffer pH 7.5 [2] | EC50 [3] [nM] | EC50 [1] [nM] | EC50 [3, 5] [nM]
CC[C@H](C)[C@@H](C(=O)N[C@@H](CC(C)C)C(=O)N[C@@H](CO)C(=O)N[C@@H](CO)C(=O)N[C@H](C(=O)N[C@@H](CCC(=O)O)C(=O)N[C@H](C(=O)NCC(=O)N[C@@H](CO)C(=O)N[C@@H](CCC(=O)O)C(=O)N[C@H](C(=O)N1CCC[C@H]1C(N)=O)[C@@H](C)O)C(C)C)[C@@H](C)O)N(C)C(=O)[C@H](C)NC(=O)CN(C)C(=O)[C@H](Cc1ccccc1)NC(=O)[C@H](CO)NC(=O)[C@H](CO)NC(=O)[C@H](CO)NC(=O)[C@H](CO)NC(=O)[C@H](CCCNC(=N)N)NC(=O)[C@H](Cc1c[nH]cn1)NC(=O)[C@H](CC(C)C)NC(=O)[C@H](Cc1ccccc1)NC(=O)[C@H](CCC(=O)O)NC(=O)[C@H](C)NC(=O)[C@H](CC(C)C)NC(=O)[C@H](CCCNC(=N)N)NC(=O)[C@H](C)NC(=O)[C@@H](NC(=O)[C@H](C)NC(=O)[C@@H]1CSSC[C@H](NC(=O)[C@H](CCCNC(=N)N)NC(=O)CC[C@H](NC(=O)CCCCCCCCCCCCCCCCCCC(=O)O)C(=O)O)C(=O)N[C@@H](CC(=O)O)C(=O)N[C@@H]([C@@H](C)O)C(=O)N[C@@H](C)C(=O)N[C@@H]([C@@H](C)O)C(=O)N1)[C@@H](C)O [Compound 145, [19CD]-isoGlu-RC()DTATC()ATARLAEFLHRSSSSF-Gly(Me)-A-Ile(Me)-LSSTEVGSETP-NH2] ({C20 diacid-γGlu}-RCDTATCATARLAEFLHRSSSSF[Sar]A[NMeI]LSSTEVGSETP-NH2; disulfide 2-7) | 0.092 | SS (SS indicates solubility ≥ 1mg/ml) | SS (SS indicates solubility ≥ 1mg/ml) | SS (SS indicates solubility ≥ 1mg/ml) | SS (SS indicates solubility ≥ 1mg/ml) | SS (SS indicates solubility ≥ 1mg/ml) | SS (SS indicates solubility ≥ 1mg/ml) | SS (SS indicates solubility ≥ 1mg/ml) | 0.22 |  | 
CC[C@H](C)[C@@H](C(=O)N[C@@H](CC(C)C)C(=O)N[C@@H](CO)C(=O)N[C@@H](CO)C(=O)N[C@H](C(=O)N[C@@H](CCC(=O)O)C(=O)N[C@H](C(=O)NCC(=O)N[C@@H](CO)C(=O)N[C@@H](CCC(=O)O)C(=O)N[C@H](C(=O)N1CCC[C@H]1C(N)=O)[C@@H](C)O)C(C)C)[C@@H](C)O)N(C)C(=O)[C@H](C)NC(=O)CN(C)C(=O)[C@H](Cc1ccccc1)NC(=O)[C@H](CO)NC(=O)[C@H](CO)NC(=O)[C@H](CO)NC(=O)[C@H](CO)NC(=O)[C@H](CCCNC(=N)N)NC(=O)[C@H](Cc1c[nH]cn1)NC(=O)[C@H](CC(C)C)NC(=O)[C@H](Cc1ccccc1)NC(=O)[C@H](CCC(=O)O)NC(=O)[C@H](C)NC(=O)[C@H](CC(C)C)NC(=O)[C@H](CCCNC(=N)N)NC(=O)[C@H](C)NC(=O)[C@@H](NC(=O)[C@H](C)NC(=O)[C@@H]1CSSC[C@H](NC(=O)[C@H](CCCNC(=N)N)NC(=O)CC[C@H](NC(=O)CCCCCCCCCCCCCCCCCCC(=O)O)C(=O)O)C(=O)N2CCC[C@H]2C(=O)N[C@@H]([C@@H](C)O)C(=O)N[C@@H](C)C(=O)N[C@@H]([C@@H](C)O)C(=O)N1)[C@@H](C)O [Compound 147, [19CD]-isoGlu-RC()PTATC()ATARLAEFLHRSSSSF-Gly(Me)-A-Ile(Me)-LSSTEVGSETP-NH2] ({C20 diacid-γGlu}-RCPTATCATARLAEFLHRSSSSF[Sar]A[NMeI]LSSTEVGSETP-NH2; disulfide 2-7) |  | SS (SS indicates solubility ≥ 1mg/ml) | II (II indicates solubility ≤ 1 mg/ml) | SS (SS indicates solubility ≥ 1mg/ml) | SS (SS indicates solubility ≥ 1mg/ml) | SS (SS indicates solubility ≥ 1mg/ml) | SS (SS indicates solubility ≥ 1mg/ml) | SS (SS indicates solubility ≥ 1mg/ml) |  | 0.16 | 0.16
CC[C@H](C)[C@@H](C(=O)N[C@@H](CC(C)C)C(=O)N[C@@H](CO)C(=O)N[C@@H](CO)C(=O)N[C@H](C(=O)N[C@@H](CC(=O)O)C(=O)N[C@H](C(=O)NCC(=O)N[C@@H](CO)C(=O)N[C@@H](CC(=O)O)C(=O)N[C@H](C(=O)N1CCC[C@H]1C(N)=O)[C@@H](C)O)C(C)C)[C@@H](C)O)N(C)C(=O)[C@H](C)NC(=O)CN(C)C(=O)[C@H](Cc1ccccc1)NC(=O)[C@H](CO)NC(=O)[C@H](CO)NC(=O)[C@H](CCCNC(=N)N)NC(=O)[C@H](Cc1c[nH]cn1)NC(=O)[C@H](CC(C)C)NC(=O)[C@H](Cc1ccccc1)NC(=O)[C@H](CCC(=O)O)NC(=O)[C@H](C)NC(=O)[C@H](CC(C)C)NC(=O)[C@H](CCCNC(=N)N)NC(=O)[C@H](CC(=O)O)NC(=O)[C@@H](NC(=O)[C@H](C)NC(=O)[C@@H]1CSSC[C@H](NC(=O)[C@H](CCCNC(=N)N)NC(=O)CC[C@H](NC(=O)CCCCCCCCCCCCCCCCCCC(=O)O)C(=O)O)C(=O)NCC(=O)N[C@@H]([C@@H](C)O)C(=O)N[C@@H](C)C(=O)N[C@@H]([C@@H](C)O)C(=O)N1)[C@@H](C)O [Compound 158, [19CD]-isoGlu-RC()GTATC()ATDRLAEFLHRSSF-Gly(Me)-A-Ile(Me)-LSSTDVGSDTP-NH2] ({C20 diacid-γGlu}-RCGTATCATDRLAEFLHRSSF[Sar]A[NMeI]LSSTDVGSDTP-NH2; disulfide 2-7) | 0.048 | SS (SS indicates solubility ≥ 1mg/ml) | SS (SS indicates solubility ≥ 1mg/ml) | SS (SS indicates solubility ≥ 1mg/ml) | SS (SS indicates solubility ≥ 1mg/ml) | SS (SS indicates solubility ≥ 1mg/ml) | SS (SS indicates solubility ≥ 1mg/ml) | SS (SS indicates solubility ≥ 1mg/ml) |  |  | 0.11
CC[C@H](C)[C@@H](C(=O)N[C@@H](CC(C)C)C(=O)N[C@@H](CO)C(=O)N[C@@H](CO)C(=O)N[C@H](C(=O)N[C@@H](CC(N)=O)C(=O)N[C@H](C(=O)NCC(=O)N[C@@H](CO)C(=O)N[C@@H](CC(N)=O)C(=O)N[C@H](C(=O)N1CC[C@H]1C(N)=O)[C@@H](C)O)C(C)C)[C@@H](C)O)N(C)C(=O)CN(C)C(=O)[C@H](Cc1ccccc1)NC(=O)[C@H](CC(N)=O)NC(=O)[C@H](CC(N)=O)NC(=O)[C@H](CO)NC(=O)[C@H](CO)NC(=O)[C@H](CCCNC(=N)N)NC(=O)[C@H](Cc1c[nH]cn1)NC(=O)[C@H](CC(C)C)NC(=O)[C@H](Cc1ccccc1)NC(=O)[C@H](CCC(=O)O)NC(=O)[C@H](C)NC(=O)[C@H](CC(C)C)NC(=O)[C@H](CCCNC(=N)N)NC(=O)[C@H](CCC(N)=O)NC(=O)[C@@H](NC(=O)[C@H](C)NC(=O)[C@@H]1CSSC[C@H](NC(=O)[C@H](CCCNC(=N)N)NC(=O)CC[C@H](NC(=O)CCCCCCCCCCCCCCCCCCC(=O)O)C(=O)O)C(=O)N[C@@H](CC(N)=O)C(=O)N[C@@H]([C@@H](C)O)C(=O)N[C@@H](C)C(=O)N[C@@H]([C@@H](C)O)C(=O)N1)[C@@H](C)O [Compound 108, [19CD]-isoGlu-RC()NTATC()ATQRLAEFLHRSSNNF-Gly(Me)-Ile(Me)-LSSTNVGSNT-Aze-NH2] ({C20 diacid-γGlu}-RCNTATCATQRLAEFLHRSSNNF[Sar][NMeI]LSSTNVGSNT[Aze]-NH2; disulfide 2-7) | 0.32 | SS (SS indicates solubility ≥ 1mg/ml) | SS (SS indicates solubility ≥ 1mg/ml) | SS (SS indicates solubility ≥ 1mg/ml) | SS (SS indicates solubility ≥ 1mg/ml) | SS (SS indicates solubility ≥ 1mg/ml) | SS (SS indicates solubility ≥ 1mg/ml) | SS (SS indicates solubility ≥ 1mg/ml) |  |  | 0.67
